From ChEMBL document CHEMBL1136647, “Visual detection of AMP and real-time monitoring of cyclic nucleotide phosphodiesterase (PDE) activity in neutral aqueous solution. Chemosensor-coupled assay of PDE and PDE inhibitors” (Bioorg Med Chem Lett, 2003) come the findings set out here.

Each structure is given as a SMILES string.

A short description of this experiment: Inhibitory concentration against phosphodiesterase from bovine heart.

What is called IC50 is the point on the concentration scale where inhibition reaches its midpoint.

Molecule `CC(C)Cn1c(=O)n(C)c(=O)c2nc[nH]c21` [ISOBUTYLMETHYLXANTHINE] had an IC50 of 36 µM.
